Ends that are not written are not given here.
System: A. baumannii 5075
Assay: not given
Conditions: Week 2 (12/14/2023)

Row | Sequence | Bacterial MIC [mg/L]
1 | KEGCKEIKGP [TrPr-Eb20] | >128.000
2 | KRAGYARMIR [PrAd-Eb18] | >128.000
3 | NANGASNANGASYANGASN [TrPr-Pc34] | >128.000
4 | RVPPGFSPFR [PrAd-Eb28] | >128.000

System: P. aeruginosa PA01
Assay: microbe, parasite or virus in culture
Format: cell-based
Conditions: P. aeruginosa 15692 (PAO1); Week 2 (12/14/2023)
Method: Antimicrobial susceptibility testing of the 20 synthesized peptides against 17 bacterial strains of clinical relevance in the ESKAPEE panel was conducted using minimum inhibitory concentration (MIC) assays following the broth microdilution method outlined by Parker et al.[91]. The ESKAPEE panel is comprised of fourteen American Type Culture Collection (ATCC) strains and three Multidrug Resistant Organism Repository and Surveillance Network (MRSN) bacterial strains. These strains represent at least one drug-susceptible strain and one drug-resistant strain for each bacterium to assess drug efficacy across various resistance mechanisms. This panel is comprised of the following bacterial species and strains: E. faecium (ATCC 19434, ATCC 49224), S. aureus (ATCC 25923, ATCC 43300), K. pneumoniae (ATCC 700603, ATCC 13883, MRSN 1320), A. baumannii (ATCC 17978, ATCC 19606, MRSN 959), P. aeruginosa (ATCC 15692, ATCC 27853, MRSN 5519), E. cloacae (ATCC 13047, ATCC 35549), and E. coli (ATCC 35218, ATCC 43888). Bacteria were grown in cation-adjusted Mueller-Hinton broth (CAMHB) to achieve a final inoculum of 1 × 10⁵ CFU/mL. CAMHB is selected for its batch-to-batch reproducibility, low levels of antimicrobial inhibitors, and ability to support the growth of most bacterial pathogens.
Briefly, lyophilized peptides were dissolved in 0.2% TFA + 0.4% BSA in water to 2.56 mg/mL, ultrasonicated for 20 min, diluted 10-fold into CAMHB, and then serially diluted 2-fold in 0.02% TFA + 0.04% BSA in CAMHB and assayed at a concentration of 0.25 to 128 μg/mL. Assays were set up using the Tecan Freedom EVO liquid handling robot and software (Tecan, Switzerland) with 50 μL of bacterial inoculum and 50 μL of peptide transferred into round-bottom 96-well microtiter plates. Each plate assay was performed in duplicate and incubated at 37 °C for 20 h without agitation. Bacterial growth was assessed using the BIOMIC V3 Image Analysis system (Giles Scientific, USA) and the MIC values were determined visually according to the Clinical and Laboratory Standards Institute (CLSI) guidelines.

Row | Sequence | Bacterial MIC [mg/L]
5 | KEGCKEIKGP [TrPr-Eb20] | >128.000
6 | KRAGYARMIR [PrAd-Eb18] | >128.000
7 | NANGASNANGASYANGASN [TrPr-Pc34] | >128.000
8 | RVPPGFSPFR [PrAd-Eb28] | >128.000

System: not given
Assay: not given
Design: method as in Biomatik (vendor)
Conditions: 1.0 mg peptide in 1.0 ml solvent; peptides synthesized by Biomatik; ref Biomatik (vendor); cited from earlier work

Row | Sequence | Suggest solvent (solubility)
9 | KEGCKEIKGP [TrPr-Eb20] | 1.0mg peptide soluble in 1.0ml H2O
10 | KRAGYARMIR [PrAd-Eb18] | 1.0mg peptide soluble in 1.0ml H2O
11 | NANGASNANGASYANGASN [TrPr-Pc34] | 1.0mg peptide soluble in 1.0ml H2O
12 | RVPPGFSPFR [PrAd-Eb28] | 1.0mg peptide soluble in 1.0ml H2O

System: P. aeruginosa PA01 (Si)
Assay: microbe, parasite or virus in culture
Format: cell-based
Conditions: Si
Excerpt: Supplement 41522_2025_837_MOESM13_ESM.xlsx, sheet "Table_S13_ESKAPEE-MIC" | column: Bacterial MIC (µg/mL)

Row | Sequence | Bacterial MIC [mg/L]
13 | KEGCKEIKGP [TrPr-Eb20] | >128.000
14 | KRAGYARMIR [PrAd-Eb18] | >128.000
15 | NANGASNANGASYANGASN [TrPr-Pc34] | >128.000
16 | RVPPGFSPFR [PrAd-Eb28] | >128.000

System: S. aureus ATCC 43300
Assay: microbe, parasite or virus in culture
Conditions: S. aureus 43300; Week 2 (12/14/2023)
Summary of the method: (§1)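 Broth microdilution MIC in cation-adjusted Mueller-Hinton broth, final inoculum 1 × 10⁵ CFU/mL. Peptides in 0.02% TFA + 0.04% BSA, 2-fold series 0.25 to 128 μg/mL, duplicate, 37 °C for 20 h without agitation. Growth imaged; MIC read visually per CLSI.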

Row | Sequence | Bacterial MIC [mg/L]
17 | KEGCKEIKGP [TrPr-Eb20] | >128.000
18 | KRAGYARMIR [PrAd-Eb18] | >128.000
19 | NANGASNANGASYANGASN [TrPr-Pc34] | >128.000
20 | RVPPGFSPFR [PrAd-Eb28] | >128.000

System: S. aureus ATCC 25923
Assay: microbe, parasite or virus in culture
Conditions: ATCC 25923, 20 h
Summary of the method: as §1

Row | Sequence | Bacterial MIC [mg/L]
21 | KEGCKEIKGP [TrPr-Eb20] | >128.000
22 | KRAGYARMIR [PrAd-Eb18] | >128.000
23 | NANGASNANGASYANGASN [TrPr-Pc34] | >128.000
24 | RVPPGFSPFR [PrAd-Eb28] | >128.000

System: E. faecium ATCC 19434
Assay: microbe, parasite or virus in culture
Conditions: ATCC 19434, 20 h
Summary of the method: as §1

Row | Sequence | Bacterial MIC [mg/L]
25 | KEGCKEIKGP [TrPr-Eb20] | >128.000
26 | KRAGYARMIR [PrAd-Eb18] | >128.000
27 | NANGASNANGASYANGASN [TrPr-Pc34] | >128.000
28 | RVPPGFSPFR [PrAd-Eb28] | >128.000

System: A. baumannii ATCC 19606
Assay: microbe, parasite or virus in culture
Conditions: ATCC 19606, 20 h
Summary of the method: as §1

Row | Sequence | Bacterial MIC [mg/L]
29 | KEGCKEIKGP [TrPr-Eb20] | >128.000
30 | KRAGYARMIR [PrAd-Eb18] | >128.000
31 | NANGASNANGASYANGASN [TrPr-Pc34] | >128.000
32 | RVPPGFSPFR [PrAd-Eb28] | >128.000

System: E. faecium ATCC 49224
Assay: microbe, parasite or virus in culture
Conditions: ATCC 49224, 20 h
Summary of the method: as §1

Row | Sequence | Bacterial MIC [mg/L]
33 | KEGCKEIKGP [TrPr-Eb20] | >128.000
34 | KRAGYARMIR [PrAd-Eb18] | >128.000
35 | NANGASNANGASYANGASN [TrPr-Pc34] | >128.000
36 | RVPPGFSPFR [PrAd-Eb28] | >128.000

System: P. aeruginosa ATCC 27853
Assay: microbe, parasite or virus in culture
Conditions: ATCC 27853, 20 h
Summary of the method: as §1

Row | Sequence | Bacterial MIC [mg/L]
37 | KEGCKEIKGP [TrPr-Eb20] | >128.000
38 | KRAGYARMIR [PrAd-Eb18] | >128.000
39 | NANGASNANGASYANGASN [TrPr-Pc34] | >128.000
40 | RVPPGFSPFR [PrAd-Eb28] | >128.000

System: E. coli ATCC 35218
Assay: microbe, parasite or virus in culture
Conditions: E. coli 35218; Week 2 (12/14/2023)
Summary of the method: as §1

Row | Sequence | Bacterial MIC [mg/L]
41 | KEGCKEIKGP [TrPr-Eb20] | >128.000
42 | KRAGYARMIR [PrAd-Eb18] | >128.000
43 | NANGASNANGASYANGASN [TrPr-Pc34] | >128.000
44 | RVPPGFSPFR [PrAd-Eb28] | >128.000

System: E. cloacae ATCC 13047
Assay: microbe, parasite or virus in culture
Conditions: ATCC 13047, 20 h
Summary of the method: as §1

Row | Sequence | Bacterial MIC [mg/L]
45 | KEGCKEIKGP [TrPr-Eb20] | >128.000
46 | KRAGYARMIR [PrAd-Eb18] | >128.000
47 | NANGASNANGASYANGASN [TrPr-Pc34] | >128.000
48 | RVPPGFSPFR [PrAd-Eb28] | >128.000

System: A. baumannii ATCC 17978
Assay: microbe, parasite or virus in culture
Conditions: ATCC 17978, 20 h
Summary of the method: as §1

Row | Sequence | Bacterial MIC [mg/L]
49 | KEGCKEIKGP [TrPr-Eb20] | >128.000
50 | KRAGYARMIR [PrAd-Eb18] | >128.000
51 | NANGASNANGASYANGASN [TrPr-Pc34] | >128.000
52 | RVPPGFSPFR [PrAd-Eb28] | >128.000

System: P. aeruginosa MRSN 5519
Assay: microbe, parasite or virus in culture
Conditions: MRSN 5519, 20 h
Summary of the method: as §1

Row | Sequence | Bacterial MIC [mg/L]
53 | KEGCKEIKGP [TrPr-Eb20] | >128.000
54 | KRAGYARMIR [PrAd-Eb18] | >128.000
55 | NANGASNANGASYANGASN [TrPr-Pc34] | >128.000
56 | RVPPGFSPFR [PrAd-Eb28] | >128.000

System: E. cloacae ATCC 35549
Assay: microbe, parasite or virus in culture
Conditions: ATCC 35549, 20 h
Summary of the method: as §1

Row | Sequence | Bacterial MIC [mg/L]
57 | KEGCKEIKGP [TrPr-Eb20] | >128.000
58 | KRAGYARMIR [PrAd-Eb18] | >128.000
59 | NANGASNANGASYANGASN [TrPr-Pc34] | >128.000
60 | RVPPGFSPFR [PrAd-Eb28] | >128.000

System: E. coli ATCC 43888
Assay: microbe, parasite or virus in culture
Conditions: ATCC 43888, 20 h
Summary of the method: as §1

Row | Sequence | Bacterial MIC [mg/L]
61 | KEGCKEIKGP [TrPr-Eb20] | >128.000
62 | KRAGYARMIR [PrAd-Eb18] | >128.000
63 | NANGASNANGASYANGASN [TrPr-Pc34] | >128.000
64 | RVPPGFSPFR [PrAd-Eb28] | >128.000

System: K. pneumoniae ATCC 700603
Assay: microbe, parasite or virus in culture
Conditions: K. pneumoniae 700603; Week 2 (12/14/2023)
Summary of the method: as §1

Row | Sequence | Bacterial MIC [mg/L]
65 | KEGCKEIKGP [TrPr-Eb20] | >128.000
66 | KRAGYARMIR [PrAd-Eb18] | >128.000
67 | NANGASNANGASYANGASN [TrPr-Pc34] | >128.000
68 | RVPPGFSPFR [PrAd-Eb28] | >128.000

System: K. pneumoniae ATCC 13883
Assay: microbe, parasite or virus in culture
Conditions: ATCC 13883, 20 h
Summary of the method: as §1

Row | Sequence | Bacterial MIC [mg/L]
69 | KEGCKEIKGP [TrPr-Eb20] | >128.000
70 | KRAGYARMIR [PrAd-Eb18] | >128.000
71 | NANGASNANGASYANGASN [TrPr-Pc34] | >128.000
72 | RVPPGFSPFR [PrAd-Eb28] | >128.000

System: K. pneumoniae 4640
Assay: not given
Conditions: 4640, 20 h

Row | Sequence | Bacterial MIC [mg/L]
73 | KEGCKEIKGP [TrPr-Eb20] | >128.000
74 | KRAGYARMIR [PrAd-Eb18] | >128.000
75 | NANGASNANGASYANGASN [TrPr-Pc34] | >128.000
76 | RVPPGFSPFR [PrAd-Eb28] | >128.000

— article PMC12635268, “Novel antimicrobial peptides and peptide-microbiome crosstalk in Appalachian salamander skin” (NPJ Biofilms and Microbiomes, 2025)
